Experiments:
Type in all cases: cell-based, hepatitis C virus
HCVcc (FL-J6/JFH++) = experiment: Drug inhibition of HCVcc RNA replication in infected Huh-7.5 cells (Taqman); conditions: 48 hour post-infection; Huh-7.5 cells infected with FL-J6/JFH++; HCVcc RNA by Taqman
Procedure: Parallel cultures of Huh-7.5 cells were infected with FL-J6/JFH++ for 6 hours. Following removal of the inocula, cells were washed with PBS and fed with complete growth medium containing the indicated concentrations of antiviral drugs or a DMSO carrier control. RNAs were extracted after 2 days and the amount of accumulated HCVcc RNA quantitated by Taqman.
A panel of experimental HCV antiviral compounds were examined for their ability to inhibit RNA replication at 48 hour post-infection with HCVcc. One of these compounds, 2′-C-methyladenosine (Merck) is a nucleoside analog that inhibits the HCV RNA polymerase. Three other compounds (PI-1, Vertex; BILN2061, Boerhinger Ingelheim; and SCH6, Schering-Plough) target the serine protease activity of NS3 by competitive binding. […] For the polymerase inhibitor, the higher specific activity is likely due to the fact that we measured the accumulation of nascent RNAs post-infection, whereas replicon-based assays examine the decay of RNA after inhibiting established replication. The reduced activities of the protease inhibitors likely reflect reduced affinities of these drugs, developed to genotype 1 proteases, to bind to the JFH NS3 protein.

HCVcc = experiment: Effect of culture additives on HCVcc production (TCID50 assay)
Procedure: The procedure for immunohistochemical staining for NS5A has been adapted to determine the infectious virus concentration within samples. In one system, virus-containing samples were subjected to serial 10-fold dilutions (typically, 10^−1 to 10^−6) in complete growth medium. Each dilution was then used to infect multiple wells of Huh-7.5 cells seeded in 96-well plates. Following 2 or 3 day incubation, the cells are fixed and subjected to immunohistochemical staining for NS5A expression, as above. The assay plate was then scored for the number of infected wells (i.e. at least one infected cell per well) for each dilution (FIG. 3) and the virus titer was then calculated as the 50% end-point tissue-culture infectious dose per ml (TCID50/ml) according to the statistical method of Reed and Muench (Am. J. Hyg. 27:493-497 (1938)). The sensitivity of this assay was determined by volume of the lowest dilution and the number of replicates tested, and was typically 15.8 TCID50s/ml.
It was of interest to ascertain culturing conditions that increase the titer of infectious HCVcc. A large number of cell culture conditions were tested for their effect on HCVcc production. These included the choice of cell culture media, amount and type of fetal calf serum, as well as the addition of various additive compounds. […] For example, the following titers were recorded: 3.10×10^6 TCID50 (25 mM N-acetylcysteine) vs. 1.06×10^6 TCID50 (5 mM N-acetylcysteine) vs. 2.65×10^5 TCID50 (no N-acetylcysteine). Thus, the use of this compound in HCV-containing cell cultures permits a significant increase in yield of infectious HCVcc. Conditions have also been established for serum-free propagation of Huh-7.5 cells and HCVcc infection and production. These conditions include, but are not limited to, Dulbecco's Modified Eagle's Medium (DMEM)/F12 medium containing 10 μg/ml transferrin, 2 μg/ml insulin, 7.6 μM free fatty acids, 0.3 μM selenium, 0.1 μM hydrocortisone, 0.20% bovine serum albumin, and 20 ng/ml epidermal growth factor.

HCVcc (FL-J6/JFH) = experiment: Blocking of HCVcc infection of naïve Huh-7.5 by soluble recombinant CD81 or CD9 (NS5A immunostaining); conditions: 10 μg/ml, 1 hour at 37° C., naïve Huh-7.5, day 3
Procedure: A) Independent samples of FL-J6/JFH++ (3.16×10^4 TCID50/ml) were mixed with the indicated amounts of recombinant human monoclonal antibodies (IgGl) against HCV E2 (open circles) or dengue-3 E proteins (filled triangle). Following a 1 hour incubation at 37° C., the virus titers of each sample were determined as described for FIG. 3. Shown are the average±s.d. of three independent samples. The amount of input virus is indicated by the dashed line. B) Samples of FL-J6/JFH were incubated for 1 hour at 37° C. with 10 μg/ml of soluble recombinant CD81 or CD9 and used to infect naïve Huh-7.5. Infections were monitored at day 3 by immunostaining as described in FIG. 2B. C). FL-J6/JFH was used to infect standard HepG2 cells or HepG2 cells engineered to express human CD81. Infections were monitored as described in FIG. 2B.
To further examine the role of E2 in HCVcc entry, virus was preincubated with a recombinant form of the large extracellular loop from CD81, which binds E2 and acts as a receptor for HCV. […] In addition, the role of CD81 in mediating HCVcc entry was examined by infecting HepG2 cells, which lack CD81 expression, or HepG2 cells that have been engineered to express human CD81.

Molecule | ability to inhibit RNA replication post-infection with HCVcc (HCVcc (FL-J6/JFH++)) | HCVcc infection after preincubation of virus with recombinant protein (HCVcc (FL-J6/JFH)) | further results
C[C@@]1(O)[C@H](O)[C@@H](CO)O[C@H]1n1cnc2c(N)ncnc21 [2′-C-methyladenosine] | inhibited HCVcc replication |  | 
CC(=O)N[C@@H](CS)C(=O)O [N-acetylcysteine] |  |  | HCVcc titer (HCVcc; 5 mM N-acetylcysteine in culture): 1.06×10^6 TCID50; HCVcc titer (HCVcc; 25 mM N-acetylcysteine in culture): 3.10×10^6 TCID50; levels of HCVcc as determined by TCID50 assay (HCVcc; additive in cell culture): consistently gave higher levels of HCVcc
COc1ccc2c(O[C@@H]3C[C@H]4C(=O)N[C@]5(C(=O)O)C[C@H]5/C=C\CCCCC[C@H](NC(=O)OC5CCCC5)C(=O)N4C3)cc(-c3csc(NC(C)C)n3)nc2c1 [BILN2061] | inhibited HCVcc replication |  | 
recombinant form of the large extracellular loop from CD81: recombinant large extracellular loop of CD81, which binds E2 and acts as a receptor for HCV (protein) FVNKDQIAKDVKQFYDQALQQAVVDDDANNAKAVVKTFHETLDCCGSSTLTALTTSVLKNNLCPSGSNIISNLFKEDCHQKIDDLFSGK |  | blocked HCVcc infection | 
large extracellular loop of CD9: large extracellular loop of CD9, a related tetraspanin (control) (protein) SHKDEVIKEVQEFYKDTYNKLKTKDEPQRETLKAIHYALNCCGLAGGVEQFISDICPKKDVLETFTVKSCPDAIKEVFDNKFHI |  | did not | 

From patent US7674612B2, “Infectious, chimeric hepatitis C virus, methods of producing the same and methods of use thereof” (The Rockefeller University, priority 2005, dated 2010)
